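96-well plates; 48 h exposure; 5 concentrations. Endpoints by linear interpolation between flanking doses. Not reached: highest tested concentration assigned. GI50 = concentration required for 50% inhibition of growth.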 The source made the active and inactive calls. Cut-off read from the data, not from the text of the source: active = GI50 up to about 1.1 µM and inactive = higher.
Key:
Assay in all cases: inhibition of tumour cell growth, NCI panel, 48 h
786-0 = system: 786-0
A498 = system: A498
A549 = system: A549
ACHN = system: ACHN
COLO 205 = system: COLO 205
DLD-1 = system: DLD-1
DMS-114 = system: DMS-114
DMS-273 = system: DMS-273
EKVX = system: EKVX
HCC 2998 = system: HCC 2998
HCT-116 = system: HCT-116
HCT-15 = system: HCT-15
HL-60 = system: HL-60
HOP-18 = system: HOP-18
HOP-62 = system: HOP-62
HOP-92 = system: HOP-92
HT-29 = system: HT-29
IGROV-1 = system: IGROV-1
K562 = system: K562
KM-20L2 = system: KM-20L2
LXFL 529 = system: LXFL 529
M14 = system: M14
M19-MEL = system: M19-MEL
Malme-3M = system: Malme-3M
NCI-H226 = system: NCI-H226
NCI-H23 = system: NCI-H23
NCI-H522 = system: NCI-H522
OVCAR-4 = system: OVCAR-4
OVCAR-8 = system: OVCAR-8
RXF 393 = system: RXF 393
SF-268 = system: SF-268
SF-295 = system: SF-295
SF-539 = system: SF-539
SK-MEL-28 = system: SK-MEL-28
SK-MEL-5 = system: SK-MEL-5
SK-OV-3 = system: SK-OV-3
SN12C = system: SN12C
SNB-19 = system: SNB-19
SNB-75 = system: SNB-75
SNB-78 = system: SNB-78
SR = system: SR
SW-620 = system: SW-620
U-251 = system: U-251
UACC-257 = system: UACC-257
UACC-62 = system: UACC-62
UO-31 = system: UO-31
XF498 = system: XF498
CAKI-1 = system: CAKI-1
KM12 = system: KM12
LOX IMVI = system: LOX IMVI
NCI-H460 = system: NCI-H460
OVCAR-5 = system: OVCAR-5
SK-MEL-2 = system: SK-MEL-2
TK-10 = system: TK-10
CCRF-CEM = system: CCRF-CEM
MOLT-4 = system: MOLT-4
OVCAR-3 = system: OVCAR-3
RPMI-8226 = system: RPMI-8226
RXF 631 = system: RXF 631

Nc1nc2c3nc(Nc4ccccc4)sc3nc(=S)n2c2sc(Nc3ccccc3)nc12
GI50 (786-0): 73.8 µM (inactive) | GI50 (A498): > 100 µM (inactive) | GI50 (A549): > 100 µM (inactive) | GI50 (ACHN): > 100 µM (inactive) | GI50 (COLO 205): > 100 µM (inactive) | GI50 (DLD-1): > 100 µM (inactive) | GI50 (DMS-114): 20.3 µM (inactive) | GI50 (DMS-273): > 100 µM (inactive) | GI50 (EKVX): > 100 µM (inactive) | GI50 (HCC 2998): 22.2 µM (inactive) | GI50 (HCT-116): > 100 µM (inactive) | GI50 (HCT-15): > 100 µM | GI50 (HL-60): > 100 µM (inactive) | GI50 (HOP-18): 36.1 µM (inactive) | GI50 (HOP-62): > 100 µM (inactive) | GI50 (HOP-92): 4.66 µM (inactive) | GI50 (HT-29): > 100 µM (inactive) | GI50 (IGROV-1): > 100 µM (inactive) | GI50 (K562): > 100 µM (inactive) | GI50 (KM-20L2): > 100 µM (inactive) | GI50 (LXFL 529): 4.18 µM (inactive) | GI50 (M14): > 100 µM (inactive) | GI50 (M19-MEL): 13.4 µM (inactive) | GI50 (Malme-3M): 47.4 µM (inactive) | GI50 (NCI-H226): > 100 µM (inactive) | GI50 (NCI-H23): > 100 µM (inactive) | GI50 (NCI-H522): 8.34 µM (inactive) | GI50 (OVCAR-4): > 100 µM (inactive) | GI50 (OVCAR-8): 15.2 µM (inactive) | GI50 (RXF 393): > 100 µM (inactive) | GI50 (SF-268): 12.1 µM (inactive) | GI50 (SF-295): > 100 µM (inactive) | GI50 (SF-539): > 100 µM (inactive) | GI50 (SK-MEL-28): > 100 µM (inactive) | GI50 (SK-MEL-5): > 100 µM (inactive) | GI50 (SK-OV-3): > 100 µM (inactive) | GI50 (SN12C): 65.5 µM (inactive) | GI50 (SNB-19): 40.1 µM (inactive) | GI50 (SNB-75): 50.8 µM (inactive) | GI50 (SNB-78): 22.5 µM (inactive) | GI50 (SR): 5.19 µM (inactive) | GI50 (SW-620): > 100 µM (inactive) | GI50 (U-251): 15.5 µM (inactive) | GI50 (UACC-257): > 100 µM (inactive) | GI50 (UACC-62): 46.7 µM (inactive) | GI50 (UO-31): > 100 µM (inactive) | GI50 (XF498): 1.98 µM (inactive)

CCC(C)CN1C(=O)NC(C)(Cc2ccccc2)C1=O (stereo not drawn)
GI50 (786-0): > 100 µM (inactive) | GI50 (A549): > 100 µM (inactive) | GI50 (ACHN): > 100 µM (inactive) | GI50 (CAKI-1): > 100 µM (inactive) | GI50 (COLO 205): > 100 µM (inactive) | GI50 (DLD-1): > 100 µM (inactive) | GI50 (DMS-114): > 100 µM (inactive) | GI50 (DMS-273): > 100 µM (inactive) | GI50 (EKVX): > 100 µM (inactive) | GI50 (HCC 2998): > 100 µM (inactive) | GI50 (HL-60): > 100 µM (inactive) | GI50 (HOP-18): > 100 µM (inactive) | GI50 (HOP-62): > 100 µM (inactive) | GI50 (HOP-92): > 100 µM (inactive) | GI50 (HT-29): > 100 µM (inactive) | GI50 (KM-20L2): > 100 µM (inactive) | GI50 (KM12): > 100 µM (inactive) | GI50 (LOX IMVI): > 100 µM (inactive) | GI50 (LXFL 529): > 100 µM (inactive) | GI50 (M14): > 100 µM (inactive) | GI50 (M19-MEL): > 100 µM (inactive) | GI50 (Malme-3M): > 100 µM (inactive) | GI50 (NCI-H226): > 100 µM (inactive) | GI50 (NCI-H23): > 100 µM (inactive) | GI50 (NCI-H460): > 100 µM (inactive) | GI50 (NCI-H522): > 100 µM (inactive) | GI50 (OVCAR-5): > 100 µM (inactive) | GI50 (OVCAR-8): > 100 µM (inactive) | GI50 (RXF 393): > 100 µM (inactive) | GI50 (SF-268): > 100 µM (inactive) | GI50 (SF-295): > 100 µM (inactive) | GI50 (SF-539): > 100 µM (inactive) | GI50 (SK-MEL-28): > 100 µM (inactive) | GI50 (SK-MEL-2): > 100 µM (inactive) | GI50 (SK-MEL-5): > 100 µM (inactive) | GI50 (SN12C): > 100 µM (inactive) | GI50 (SNB-19): > 100 µM (inactive) | GI50 (SNB-75): > 100 µM (inactive) | GI50 (SNB-78): > 100 µM (inactive) | GI50 (SR): > 100 µM (inactive) | GI50 (SW-620): > 100 µM (inactive) | GI50 (TK-10): > 100 µM (inactive) | GI50 (U-251): > 100 µM (inactive) | GI50 (UACC-257): > 100 µM (inactive) | GI50 (UO-31): > 100 µM (inactive) | GI50 (XF498): > 100 µM (inactive)

COc1ccc(Cc2cc3c(cc2OCC(=O)O)OCO3)cc1
GI50 (786-0): > 100 µM (inactive) | GI50 (A498): > 100 µM (inactive) | GI50 (A549): > 100 µM (inactive) | GI50 (ACHN): > 100 µM (inactive) | GI50 (CAKI-1): > 100 µM (inactive) | GI50 (CCRF-CEM): > 100 µM (inactive) | GI50 (COLO 205): > 100 µM (inactive) | GI50 (DLD-1): > 100 µM (inactive) | GI50 (DMS-114): > 100 µM (inactive) | GI50 (EKVX): > 100 µM (inactive) | GI50 (HCC 2998): > 100 µM (inactive) | GI50 (HCT-116): > 100 µM (inactive) | GI50 (HL-60): > 100 µM (inactive) | GI50 (HOP-62): > 100 µM (inactive) | GI50 (HOP-92): > 100 µM (inactive) | GI50 (HT-29): > 100 µM (inactive) | GI50 (IGROV-1): > 100 µM (inactive) | GI50 (K562): > 100 µM (inactive) | GI50 (KM-20L2): > 100 µM (inactive) | GI50 (KM12): > 100 µM (inactive) | GI50 (LOX IMVI): > 100 µM (inactive) | GI50 (M14): > 100 µM (inactive) | GI50 (M19-MEL): > 100 µM (inactive) | GI50 (MOLT-4): > 100 µM (inactive) | GI50 (Malme-3M): > 100 µM (inactive) | GI50 (NCI-H23): > 100 µM (inactive) | GI50 (NCI-H460): > 100 µM (inactive) | GI50 (NCI-H522): > 100 µM (inactive) | GI50 (OVCAR-3): > 100 µM (inactive) | GI50 (OVCAR-4): > 100 µM (inactive) | GI50 (OVCAR-5): > 100 µM (inactive) | GI50 (OVCAR-8): > 100 µM (inactive) | GI50 (RPMI-8226): > 100 µM (inactive) | GI50 (RXF 393): > 100 µM (inactive) | GI50 (RXF 631): > 100 µM (inactive) | GI50 (SF-268): > 100 µM (inactive) | GI50 (SF-295): > 100 µM (inactive) | GI50 (SF-539): > 100 µM (inactive) | GI50 (SK-MEL-28): > 100 µM (inactive) | GI50 (SK-MEL-2): > 100 µM (inactive) | GI50 (SK-MEL-5): > 100 µM (inactive) | GI50 (SK-OV-3): > 100 µM (inactive) | GI50 (SN12C): > 100 µM (inactive) | GI50 (SNB-19): > 100 µM (inactive) | GI50 (SR): > 100 µM (inactive) | GI50 (SW-620): > 100 µM (inactive) | GI50 (TK-10): > 100 µM (inactive) | GI50 (UACC-257): > 100 µM (inactive) | GI50 (UACC-62): > 100 µM (inactive) | GI50 (UO-31): > 100 µM (inactive)

Reference: ChEMBL document CHEMBL1201862, “PubChem BioAssay data set” (2004)
